Data taken from PubChem BioAssay AID330 (DTP/NCI, 2004).
“And” between values parts separate entries of the source, which are not always exact repeats. Identical values can stand only once. Inconclusive results and toxic doses are left out.

Test system: P388 leukemia ip, CD2F1 mice, survival T/C
Test: NCI In Vivo Anticancer Drug Screen. Data for tumor model P388 Leukemia (intraperitoneal) in CD2F1 (CDF1) mice
Details: endpoint: median survival time, higher = longer survival
Procedure, shortened: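 Mice carrying the transplanted tumor received test compound or vehicle. Survival was recorded in each group, and the value is the treated-group measurement divided by that of the vehicle-treated control group.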

[1] = dose: 50.0 mg/kg/injection, schedule: Q01DX005 (ip), vehicle: Klucel (hydroxypropylcellulose) (HPC)
[2] = dose: 100.0 mg/kg/injection, schedule: Q01DX005 (ip), vehicle: Klucel (hydroxypropylcellulose) (HPC)
[3] = dose: 50.0 mg/kg/injection, schedule: Q01DX005 (ip), vehicle: saline with Tween-80
[4] = dose: 100.0 mg/kg/injection, schedule: Q01DX005 (ip), vehicle: saline with Tween-80
[5] = dose: 200.0 mg/kg/injection, schedule: Q01DX005 (ip), vehicle: saline with Tween-80
[6] = dose: 25.0 mg/kg/injection, schedule: Q01DX005 (ip), vehicle: Klucel (hydroxypropylcellulose) (HPC)
[7] = dose: 200.0 mg/kg/injection, schedule: Q01DX005 (ip), vehicle: Klucel (hydroxypropylcellulose) (HPC)
[8] = dose: 50.0 mg/kg/injection, schedule: Q01DX009 (ip), vehicle: saline with Tween-80
[9] = dose: 100.0 mg/kg/injection, schedule: Q01DX009 (ip), vehicle: saline with Tween-80
[10] = dose: 50.0 mg/kg/injection, schedule: Q01DX009 (ip), vehicle: Klucel (hydroxypropylcellulose) (HPC)
[11] = dose: 100.0 mg/kg/injection, schedule: Q01DX009 (ip), vehicle: Klucel (hydroxypropylcellulose) (HPC)
[12] = dose: 200.0 mg/kg/injection, schedule: Q01DX009 (ip), vehicle: Klucel (hydroxypropylcellulose) (HPC)
[13] = dose: 25.0 mg/kg/injection, schedule: Q01DX009 (ip), vehicle: saline with Tween-80
[14] = dose: 50.0 mg/kg/injection, schedule: Q01DX009 (ip), vehicle: saline
[15] = dose: 100.0 mg/kg/injection, schedule: Q01DX009 (ip), vehicle: saline
[16] = dose: 200.0 mg/kg/injection, schedule: Q01DX009 (ip), vehicle: saline

`O=C(Oc1ccc[nH]c1=O)c1ccccc1` was tested, and the T/C (dose: 37.5 mg/kg/injection, schedule: Q01DX009 (ip), vehicle: saline) was 108 % of control and 98 % of control, the T/C (dose: 75.0 mg/kg/injection, schedule: Q01DX009 (ip), vehicle: saline) was 101 % of control and 105 % of control and the T/C (dose: 150.0 mg/kg/injection, schedule: Q01DX009 (ip), vehicle: saline) was 107 % of control. For the same compound, the T/C (dose: 300.0 mg/kg/injection, schedule: Q01DX009 (ip), vehicle: saline) was 101 % of control and 110 % of control and the T/C (dose: 600.0 mg/kg/injection, schedule: Q01DX009 (ip), vehicle: saline) was 101 % of control and 107 % of control.

With `CC(C)CCC1(CCCl)C(=O)NC(=O)NC1=O` the T/C [1] was 102 % of control and the T/C [2] was 106 % of control.

For `CC(=O)Nc1cc(N(CCOS(C)(=O)=O)CCOS(C)(=O)=O)ccc1N=O`, the T/C (dose: 0.08 mg/kg/injection, schedule: Q01DX009 (ip), vehicle: saline) was 154 % of control, the T/C (dose: 1.25 mg/kg/injection, schedule: Q04DX003 (ip), vehicle: saline sonified) was 168 % of control and the T/C (dose: 2.5 mg/kg/injection, schedule: Q04DX003 (ip), vehicle: saline sonified) was 177 % of control. The T/C (dose: 75.0 micrograms/kg/injection, schedule: Q01DX009 (ip), vehicle: saline) was 159 % of control and the T/C (dose: 150.0 micrograms/kg/injection, schedule: Q01DX009 (ip), vehicle: saline) was 159 % of control.

For `O=C1C(Cl)=C(NC2C(O)OC(CO)C(O)C2O)C(=O)C(Cl)=C1NC1C(O)OC(CO)C(O)C1O` (stereo not drawn), the T/C [3] was 96 % of control, the T/C [4] was 90 % of control and the T/C [5] was 97 % of control.

With `Cc1nc2ccccc2c(=O)n1/N=C1/C(=O)Nc2ccc(Br)cc21` the T/C (dose: 12.5 mg/kg/injection, schedule: Q01DX005 (ip), vehicle: Klucel (hydroxypropylcellulose) (HPC)) was 96 % of control, the T/C [6] was 96 % of control and the T/C [1] was 88 % of control and 90 % of control. The T/C [2] was 91 % of control and the T/C [7] was 104 % of control.

In the case of `CCOC(=O)[C@@H](F)[C@H](Br)C(=O)OCC`, the T/C [8] was 100 % of control and 110 % of control and the T/C [9] was 113 % of control and 122 % of control.

`Clc1nnc(C(Cl)Cl)o1` was tested, and the T/C [10] was 114 % of control, the T/C [11] was 106 % of control and the T/C [12] was 99 % of control.

In the case of `O=c1ccc2cc3ccoc3c(OCCOCCOCCOCCOc3c4occc4cc4ccc(=O)oc34)c2o1`, the T/C [3] was 92 % of control, the T/C [4] was 91 % of control and the T/C [5] was 91 % of control.

In the case of `CC(C)C1CC(O)C(C)C(CN2CCCCC2)C1` (stereo not drawn), the T/C [1] was 105 % of control and the T/C [2] was 104 % of control.

For `Nc1ccc(Cl)cc1N`, the T/C (dose: 12.5 mg/kg/injection, schedule: Q01DX009 (ip), vehicle: other) was 105 % of control, the T/C (dose: 12.5 mg/kg/injection, schedule: Q01DX009 (ip), vehicle: saline with Tween-80) was 102 % of control and the T/C (dose: 25.0 mg/kg/injection, schedule: Q01DX009 (ip), vehicle: other) was 100 % of control. The T/C [13] was 102 % of control and 104 % of control, the T/C (dose: 50.0 mg/kg/injection, schedule: Q01DX009 (ip), vehicle: other) was 113 % of control and the T/C [8] was 101 % of control and 107 % of control. The T/C (dose: 100.0 mg/kg/injection, schedule: Q01DX009 (ip), vehicle: other) was 105 % of control, the T/C [9] was 100 % of control and 105 % of control and the T/C (dose: 200.0 mg/kg/injection, schedule: Q01DX009 (ip), vehicle: other) was 105 % of control. The T/C (dose: 200.0 mg/kg/injection, schedule: Q01DX009 (ip), vehicle: saline with Tween-80) was 114 % of control and 121 % of control.

For `CC1=C(C)C(=O)C2=C(OCCCO2)C1=O`, the T/C (dose: 15.0 mg/kg/injection, schedule: Q01DX005 (ip), vehicle: Klucel (hydroxypropylcellulose) (HPC)) was 98 % of control, the T/C (dose: 30.0 mg/kg/injection, schedule: Q01DX005 (ip), vehicle: Klucel (hydroxypropylcellulose) (HPC)) was 96 % of control and the T/C (dose: 60.0 mg/kg/injection, schedule: Q01DX005 (ip), vehicle: Klucel (hydroxypropylcellulose) (HPC)) was 98 % of control.

`CCOC(=O)C(CC)CO` (stereo not drawn) was tested, and the T/C [14] was 101 % of control, the T/C [15] was 100 % of control and the T/C [16] was 101 % of control.

For `Cc1ccc(S(=O)(=O)/N=S(\C)CC(C)Cl)cc1` (stereo not drawn), the T/C [10] was 100 % of control, the T/C [11] was 105 % of control and the T/C [12] was 105 % of control.

With `Fc1ccccc1/C=C/c1ccnnc1` the T/C [14] was 94 % of control, the T/C [15] was 95 % of control and the T/C [16] was 103 % of control.

With `CCN(CC)CC(O)CNc1ncnc(N)c1C(=C(C)C)c1ccc(Cl)cc1` (stereo not drawn) the T/C [13] was 100 % of control, the T/C [8] was 100 % of control and the T/C [9] was 90 % of control.

With `O=NNc1ncc(Br)cc1Br` the T/C (dose: 1.56 mg/kg/injection, schedule: Q01DX009 (ip), vehicle: water) was 100 % of control, the T/C (dose: 3.12 mg/kg/injection, schedule: Q01DX009 (ip), vehicle: water) was 99 % of control and 107 % of control and the T/C (dose: 6.25 mg/kg/injection, schedule: Q01DX009 (ip), vehicle: water) was 107 % of control and 110 % of control. For the same compound, the T/C (dose: 12.5 mg/kg/injection, schedule: Q01DX005 (ip), vehicle: water) was 119 % of control and 122 % of control, the T/C (dose: 12.5 mg/kg/injection, schedule: Q01DX009 (ip), vehicle: water) was 122 % of control and the T/C (dose: 25.0 mg/kg/injection, schedule: Q01DX009 (ip), vehicle: water) was 122 % of control. The T/C (dose: 50.0 mg/kg/injection, schedule: Q01DX005 (ip), vehicle: water) was 154 % of control and 165 % of control and the T/C (dose: 100.0 mg/kg/injection, schedule: Q01DX005 (ip), vehicle: water) was 175 % of control and 190 % of control and 206 % of control.

`Clc1ccc(COCc2ccccc2Cn2ccnc2)cc1` was tested, and the T/C (dose: 60.0 mg/kg/injection, schedule: Q01DX005 (ip), vehicle: saline with Tween-80) was 95 % of control and the T/C (dose: 120.0 mg/kg/injection, schedule: Q01DX005 (ip), vehicle: saline with Tween-80) was 99 % of control.

With `NNC(=O)N/N=C/c1ccccc1Cl` the T/C [6] was 96 % of control and the T/C [1] was 112 % of control.

`CCOC(=O)Nc1cc2c(c(N)n1)N=C(c1ccc(C)cc1)CN2` was tested, and the T/C (dose: 1.0 mg/kg/injection, schedule: Q01DX005 (ip), vehicle: saline with Tween-80) was 109 % of control, the T/C (dose: 3.0 mg/kg/injection, schedule: Q01DX005 (ip), vehicle: saline with Tween-80) was 109 % of control and the T/C (dose: 6.0 mg/kg/injection, schedule: Q01DX005 (ip), vehicle: saline with Tween-80) was 121 % of control.

For `CC(C)=C1NC(=O)NC1=O`, the T/C [1] was 101 % of control, the T/C [2] was 101 % of control and the T/C [7] was 102 % of control.

In the case of `Cc1cccc(=O)n1CCC#N`, the T/C [15] was 95 % of control, the T/C [16] was 100 % of control and the T/C (dose: 400.0 mg/kg/injection, schedule: Q01DX009 (ip), vehicle: saline) was 100 % of control.

For `CCOC(=O)/C(=C(\C)N)n1[nH]c(=O)ccc1=O`, the T/C (dose: 100.0 mg/kg/injection, schedule: Q04DX002 (ip), vehicle: saline) was 98 % of control, the T/C (dose: 200.0 mg/kg/injection, schedule: Q04DX002 (ip), vehicle: saline) was 100 % of control and the T/C (dose: 400.0 mg/kg/injection, schedule: Q04DX002 (ip), vehicle: saline) was 100 % of control.

With `O=C1C2C=CC(c3ccccc32)N1/C=C/c1ccccc1` (stereo not drawn) the T/C (dose: 100.0 mg/kg/injection, schedule: Q04DX003 (ip), vehicle: Klucel (hydroxypropylcellulose) (HPC)) was 101 % of control, the T/C (dose: 200.0 mg/kg/injection, schedule: Q04DX003 (ip), vehicle: Klucel (hydroxypropylcellulose) (HPC)) was 99 % of control and the T/C (dose: 400.0 mg/kg/injection, schedule: Q04DX003 (ip), vehicle: Klucel (hydroxypropylcellulose) (HPC)) was 97 % of control.

For `O=C(N/N=C/c1cc(Br)cc(Br)c1[O-])c1ccccc1.O=C(N/N=C/c1cc(Br)cc(Br)c1[O-])c1ccccc1.[Mn+2]`, the T/C (dose: 100.0 mg/kg/injection, schedule: Q01DX001 (ip), vehicle: saline with Tween-80) was 95 % of control, the T/C (dose: 200.0 mg/kg/injection, schedule: Q01DX001 (ip), vehicle: saline with Tween-80) was 101 % of control and the T/C (dose: 400.0 mg/kg/injection, schedule: Q01DX001 (ip), vehicle: saline with Tween-80) was 98 % of control.

With `Cc1cc2nnc(C)n2c(C)n1` the T/C (dose: 100.0 mg/kg/injection, schedule: Q04DX003 (ip), vehicle: saline) was 95 % of control, the T/C (dose: 200.0 mg/kg/injection, schedule: Q04DX003 (ip), vehicle: saline) was 96 % of control and the T/C (dose: 400.0 mg/kg/injection, schedule: Q04DX003 (ip), vehicle: saline) was 93 % of control.
